The supplement of paper PMC10307832

Columns and labels:
Test in all cases: relative viability (nuclei count vs DMSO), 5 days (fraction); higher = more cells survive
BI-2536 + Tozasertib = compound: CC[C@@H]1C(=O)N(C)c2cnc(Nc3ccc(C(=O)NC4CCN(C)CC4)cc3OC)nc2N1C1CCCC1 [BI-2536] + Cc1cc(Nc2cc(N3CCN(C)CC3)nc(Sc3ccc(NC(=O)C4CC4)cc3)n2)n[nH]1 [Tozasertib] (partner 0.1 µM)
Outline: (§1)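 Nuclei were stained with Hoechst during a one-step fixation (final 0.05% Triton X-100, 1% formaldehyde, 1 ug/ml Hoechst) carried out 5 days after dosing, then counted on 4× images. The cells, lung cancer lines in 1536-well plates, had been dosed by pin tool the day after seeding with one drug alone or a fixed anchor-drug dose plus five library-drug doses (not always all listed) in √10 steps. Relative viability is the nuclei count in treated wells divided by that in vehicle wells, and each value is the median of duplicate plates.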

BI-2536 + Phenformin = compound: CC[C@@H]1C(=O)N(C)c2cnc(Nc3ccc(C(=O)NC4CCN(C)CC4)cc3OC)nc2N1C1CCCC1 [BI-2536] + N=C(N)NC(=N)NCCc1ccccc1 [Phenformin] (partner 250 µM)
Outline: as §1

BI-2536 + Alpelisib = compound: CC[C@@H]1C(=O)N(C)c2cnc(Nc3ccc(C(=O)NC4CCN(C)CC4)cc3OC)nc2N1C1CCCC1 [BI-2536] + Cc1nc(NC(=O)N2CCC[C@H]2C(N)=O)sc1-c1ccnc(C(C)(C)C(F)(F)F)c1 [Alpelisib] (partner 2 µM)
Outline: as §1

BI-2536 + Palbociclib = compound: CC[C@@H]1C(=O)N(C)c2cnc(Nc3ccc(C(=O)NC4CCN(C)CC4)cc3OC)nc2N1C1CCCC1 [BI-2536] + CC(=O)c1c(C)c2cnc(Nc3ccc(N4CCNCC4)cn3)nc2n(C2CCCC2)c1=O [Palbociclib] (partner 0.5 µM)
Outline: as §1

Cell Line	relative viability (BI-2536 + Tozasertib; first compound 0.01 µM)	relative viability (BI-2536 + Tozasertib; first compound 0.03162 µM)	relative viability (BI-2536 + Tozasertib; first compound 0.1 µM)	relative viability (BI-2536 + Tozasertib; first compound 0.3162 µM)	relative viability (BI-2536 + Tozasertib; first compound 1 µM)	relative viability (BI-2536 + Phenformin; first compound 0.01 µM)	relative viability (BI-2536 + Phenformin; first compound 0.03162 µM)	relative viability (BI-2536 + Phenformin; first compound 0.1 µM)	relative viability (BI-2536 + Phenformin; first compound 0.3162 µM)	relative viability (BI-2536 + Phenformin; first compound 1 µM)	relative viability (BI-2536 + Alpelisib; first compound 0.01 µM)	relative viability (BI-2536 + Alpelisib; first compound 0.03162 µM)	relative viability (BI-2536 + Alpelisib; first compound 0.1 µM)	relative viability (BI-2536 + Alpelisib; first compound 0.3162 µM)	relative viability (BI-2536 + Alpelisib; first compound 1 µM)	relative viability (BI-2536 + Palbociclib; first compound 0.01 µM)	relative viability (BI-2536 + Palbociclib; first compound 0.03162 µM)	relative viability (BI-2536 + Palbociclib; first compound 0.1 µM)	relative viability (BI-2536 + Palbociclib; first compound 0.3162 µM)	relative viability (BI-2536 + Palbociclib; first compound 1 µM)
NCI-H596	0.913	1.12	0.769	0.267	0.247	0.729	0.737	0.917	0.358	0.245	0.409	0.46	0.535	0.305	0.304	–	–	–	–	–
A-427	0.187	0.211	0.189	0.15	0.146	0.35	0.273	0.151	0.0945	0.134	1.11	1.04	1.03	0.381	0.136	0.519	0.498	0.453	0.219	0.203
EMC-BAC-2	0.302	0.302	0.201	0.212	0.209	0.547	0.477	0.352	0.155	0.208	0.741	0.886	0.604	0.161	0.12	0.514	0.502	0.455	0.257	0.297
NCI-H441	0.557	0.352	0.274	0.293	0.31	0.805	0.492	0.23	0.217	0.228	0.613	0.235	0.148	0.168	0.178	0.201	0.203	0.183	0.132	0.122
LCLC-103H	0.471	0.412	0.284	0.292	0.252	0.306	0.338	0.295	0.152	0.143	1.05	0.925	0.929	0.556	0.125	0.473	0.508	0.421	0.371	0.294
HCC-827	0.45	0.414	0.428	0.376	0.308	0.421	0.377	0.43	0.241	0.157	0.934	1.03	0.867	0.282	0.243	0.467	0.435	0.467	0.267	0.186
NCI-H1355	0.528	0.434	0.295	0.212	0.195	0.427	0.408	0.219	0.193	0.196	0.701	0.797	0.753	0.226	0.17	0.415	0.405	0.385	0.171	0.158
NCI-H1734	0.251	0.271	0.26	0.253	0.26	0.393	0.24	0.159	0.151	0.167	0.634	0.777	0.51	0.192	0.222	0.358	0.349	0.256	0.203	0.192
HARA	0.109	0.127	0.114	0.0998	0.128	0.511	0.55	0.376	0.049	0.0462	1.03	0.927	0.843	0.062	0.0695	0.265	0.346	0.295	0.151	0.136
HCC-15	0.461	0.389	0.195	0.14	0.108	0.474	0.485	0.149	0.103	0.108	0.835	0.73	0.691	0.142	0.117	0.704	0.66	0.547	0.17	0.144
LCLC-97TM1	0.236	0.184	0.176	0.182	0.178	0.43	0.432	0.366	0.137	0.154	0.197	0.219	0.214	0.129	0.141	0.225	0.203	0.144	0.107	0.0769
RERF-LC-KJ	0.496	0.405	0.275	0.224	0.226	0.403	0.297	0.216	0.211	0.224	0.697	0.724	0.675	0.195	0.208	1.09	0.949	0.491	0.266	0.241
NCI-H1651	0.685	0.795	0.429	0.104	0.0989	0.296	0.197	0.136	0.104	0.102	0.93	0.828	0.558	0.0805	0.0804	0.5	0.505	0.514	0.41	0.0953
NCI-H2170	0.713	0.89	0.593	0.177	0.249	0.435	0.413	0.34	0.167	0.202	0.767	0.871	0.402	0.195	0.223	0.379	0.437	0.363	0.155	0.16
NCI-H2023	0.389	0.461	0.234	0.11	0.108	0.406	0.408	0.119	0.0985	0.0823	0.57	0.577	0.309	0.0843	0.0719	0.382	0.348	0.168	0.102	0.0824
LC-2-ad	0.412	0.278	0.279	0.318	0.383	0.609	0.545	0.257	0.203	0.292	0.521	0.348	0.0935	0.0735	0.123	0.526	0.379	0.361	0.234	0.248
